By IC50 is commonly meant the point on the concentration scale where inhibition reaches its midpoint. Read a high IC50 as weaker potency in that assay.

Some results are limits rather than exact numbers.

One data set deals with RAW 264.7 cells. The experiment in a line: NO production inhibition in LPS-induced RAW 264.7 cells (Griess reagent method). It is filed as cell-based. The settings on record: LPS-induced (10 μg/mL) RAW 264.7 cells, 24 h, mean ± standard deviation (n = 3). As for the experimental part: RAW 264.7 cells were cultured as above, then divided into blank control, LPS-induced (10 μg/mL, model), and sample-treated groups. After 24 h, supernatants were centrifuged (12,000 r/min, 5 min) and collected. NO production was assessed using the standard Griess reagent method (Fan et al. [2023]).
Inhibition rate (%) = [(NOmodel – NOsample)/(NOmodel – NOblank)] × 100%.
(In general: Nitrite, measured by Griess reagent, commonly stands in for NO production.)

The test system of another data set is RAW264.7 macrophages. The experiment in a line: Cell viability assay (CCK-8) in RAW264.7 macrophages. It is filed as cell-based. Particulars: RAW 264.7 cells, 24 h, tested at 20, 40, 80 μmol/L. Here is the method: RAW264.7 macrophages were seeded in 96-well plates (5 × 10^4 cells/well) and cultured at 37 °C with 5% CO₂ for 24 h. After adhesion, test samples (20, 40, 80 μmol/L) or medium (blank) were added and incubated for 24 h. Subsequently, 10 μL of CCK-8 solution was added, and after 2 h of incubation, the absorbance was measured at 450 nm.
Cell viability (%) = (ODsample/ODblank) × 100%

In the data set on RAW 264.7 cells (Mus musculus, RAW264.7), `COC(=O)C(C)(C)c1ccc(C(=O)O)c2c1C(=O)OC2O` (racemic) [Compound 8, (±)-Marasmielolic acid D] displayed an IC50 of 50.8 ± 3.4 µM. The compound further returned a Cytotoxicity in the data set with RAW264.7 macrophages above 80 µmol/L.

`N=C(N)NN` [Aminoguanidine, aminoguanidine, reference compound] gave an IC50 with RAW 264.7 cells of 12.5 ± 1.8 µM. In the data set on RAW264.7 macrophages, this compound yielded a Cytotoxicity above 80 µmol/L.

Compound `CC1(C)OC(=O)c2c1ccc1c2COC1=O` [Compound 1, Marasmiellactone R] came in with an IC50 in the data set on RAW 264.7 cells (Mus musculus, RAW264.7) of 18.2 ± 1.9 µM. The compound also registered a Cytotoxicity with RAW264.7 macrophages above 80 µmol/L.

`C[C@]1(CO)OC(=O)c2c1ccc1c2COC1=O` [Compound 2, Marasmiellactone S] returned an IC50 with RAW 264.7 cells (Mus musculus, RAW264.7) of 16.7 ± 1.6 µM. Besides, the Cytotoxicity in the data set on RAW264.7 macrophages is above 80 µmol/L.

`CC(=O)OC[C@@]1(C)OC(=O)c2c1ccc1c2COC1=O` [Compound 3, 10-O-acetylmarasmiellactone S] displayed a 50% inhibitory concentration (IC50) in the data set on RAW 264.7 cells (Mus musculus, RAW264.7) of 22.1 ± 2.6 µM. Moreover, the Cytotoxicity in the data set with RAW264.7 macrophages was above 80 µmol/L.

Regarding `C[C@@H]1OC(=O)c2c1ccc1c2COC1=O` [Compound 4, 10-normarasmiellactone R], in the data set on RAW 264.7 cells (Mus musculus, RAW264.7), the IC50 was found to be 15.5 ± 1.4 µM. The same compound showed a Cytotoxicity in the data set with RAW264.7 macrophages above 80 µmol/L.

In the case of `CC(C)(CC(=O)O)c1ccc(C(=O)O)c2c1C(=O)NC2=O` [Compound 5, Marasmielolic acid A], the IC50 in the data set with RAW 264.7 cells (Mus musculus, RAW264.7) stood at 53.5 ± 3.9 µM. Also, in the data set with RAW264.7 macrophages, the Cytotoxicity was above 80 µmol/L.

In the case of `CC(C)(CC(=O)O)c1ccc(C(=O)O)c2c1C(=O)OC2` [Compound 6, Marasmielolic acid B], the IC50 in the data set with RAW 264.7 cells (Mus musculus, RAW264.7) came out at 65.4 ± 4.6 µM. In the data set on RAW264.7 macrophages, this compound registered a Cytotoxicity above 80 µmol/L.

As for `CC(C)(C(=O)O)c1ccc(C(=O)O)c2c1C(=O)OC2` [Compound 7, normarasmielolic acid B], half-maximal inhibition in the data set with RAW 264.7 cells (Mus musculus, RAW264.7) (IC50) was put at 69.2 ± 3.1 µM. The compound also returned a Cytotoxicity in the data set on RAW264.7 macrophages above 80 µmol/L.

The compound `COC(=O)c1c(C(=O)O)ccc2c1C(=O)OC2(C)C` [Compound 9, Marasmielolic acid E] showed an IC50 in the data set with RAW 264.7 cells (Mus musculus, RAW264.7) above 100 µM. The same compound registered a Cytotoxicity in the data set with RAW264.7 macrophages above 80 µmol/L.

For `COC(=O)c1c(C(=O)O)ccc2c1C(=O)C(O)=CC2(C)C` [Compound 10, Marasmielolic acid F], the IC50 in the data set on RAW 264.7 cells (Mus musculus, RAW264.7) is above 100 µM. Moreover, in the data set on RAW264.7 macrophages, the Cytotoxicity is above 80 µmol/L.
